{"source": "patent US20220175774A1", "about": "“Bioavailable Oral Dosage Form Of Tyrosine-Kinase Inhibitor” (Alembic Pharmaceuticals Limited, priority 2020, published 2022)", "assay": "Stability study according to ICH guidelines", "type": "physicochemical", "protocol": "The total impurity content is measured after synthesis of the compound and compared with the measured total impurity content after storage for a designated period of time. […] Stability studies were conducted, according to the ICH guidelines, for 6 months at accelerated condition (40° C./75% RH) and at room temperature."}
{"smiles": "Cc1nc(Nc2ncc(C(=O)Nc3c(C)cccc3Cl)s2)cc(N2CCN(CCO)CC2)n1", "note": "[N-(2-chloro-6-methylphenyl)-2-[[6-[4-(2-hydroxyethyl)-1-piperazinyl]-2-methyl-4-pyrimidinyl]amino]-5-thiazolecarboxamide]", "values": [{"measurement": "total impurity content after storage", "setting": "about 6 months at about 40° c. and about 75% RH", "result": "less than 4%"}, {"measurement": "total impurity content", "setting": "at 0 days", "result": "less than 3%"}]}
